According to patent publication US12414961B2, “Substituted nucleosides and nucleotides for treating viral infections” (priority 2013, dated 2025):

How the values were obtained:
CEM = test: Cytotoxicity (CC50) CEM; conditions: read-out: Cytotoxicity (CC50 uM) CEM; CEM
BxPC3 = test: Cytotoxicity (CC50) BxPC3; conditions: read-out: Cytotoxicity (CC50 uM) BxPC3; BxPC3
Huh-7 = test: Cytotoxicity (CC50) Huh-7; conditions: read-out: Cytotoxicity (CC50 uM) Huh-7; Huh-7
HepG2 = test: Cytotoxicity (CC50) HepG2; conditions: read-out: Cytotoxicity (CC50 uM) HepG2; HepG2
A204 = test: Cytotoxicity (CC50) A204; type: cell-based; conditions: A204
Huh-7 cells = test: Cytotoxicity in Huh-7 cells of the HCV replicon assay; conditions: read-out: Huh-7 cells (CC50 uM)
Cytotoxicity (CC50) CEM = conditions: human, CEM cells
[1] = Cytotoxicity in Vero cells (Dengue assay); conditions: African green monkey
[2] = Cytotoxicity (CC50) BxPC3; conditions: human, BxPC3 cells
[3] = Cytotoxicity (CC50) Huh-7; conditions: human, Huh-7 cells
[4] = Cytotoxicity (CC50) HepG2; conditions: human, HepG2 cells
[5] = Cytotoxicity in Huh-7 cells (Dengue assay); conditions: human, Huh-7 cells
Dengue Type 2 [6] = test: Anti-Dengue virus cytoprotection assay, Huh-7 cells; conditions: Huh-7, read-out: Dengue Type 2 Huh-7 Cells (EC50 uM)
Dengue Type 2 [7] = test: Anti-Dengue virus cytoprotection assay, Vero cells; conditions: read-out: Dengue Type 2 Vero Cells (EC50 uM)

C[C@@]1(O)C(O)[C@@H](CO)O[C@H]1n1ccc(=S)[nH]c1=O (stereo partly shown)
CC50 (CEM): > 400 µM | CC50 (BxPC3): > 100 µM | CC50 (Huh-7): > 100 µM | CC50 (HepG2): > 400 µM

C[C@@]1(F)C(O)[C@@H](CO)O[C@H]1n1ccc(=S)[nH]c1=O (stereo partly shown)
CC50 (CEM): > 400 µM | CC50 (Huh-7): > 400 µM | CC50 (HepG2): > 400 µM

C[C@@]1(O)C(O)[C@@H](CO)O[C@H]1n1ccc(=O)[nH]c1=S (stereo partly shown)
CC50 (CEM): > 200 µM | CC50 (BxPC3): > 100 µM | CC50 (Huh-7): > 100 µM | CC50 (HepG2): > 400 µM

CC(C)OC(=O)[C@H](C)NP(=O)(OC[C@H]1O[C@@H](n2ccc(=O)[nH]c2=[Se])[C@](C)(O)C1O)Oc1ccccc1 (stereo partly shown)
CC50 (BxPC3): > 400 µM | CC50 (Huh-7): > 100 µM | CC50 (HepG2): > 400 µM | CC50 (A204): > 400 µM

CC(C)OC(=O)[C@H](C)N[P@@](=O)(OC[C@H]1O[C@@H](n2ccc(=O)[nH]c2=S)[C@](C)(O)C1O)Oc1ccccc1 (stereo partly shown)
CC50 (CEM): > 400 µM | CC50 (Huh-7): > 400 µM | CC50 (HepG2): > 400 µM

CC(C)OC(=O)[C@H](C)N[P@@](=O)(OC[C@H]1O[C@@H](n2ccc(=O)[nH]c2=O)[C@](C)(F)C1O)Oc1ccccc1 (stereo partly shown)
CC50 (CEM): > 400 µM | CC50 (Huh-7): > 400 µM | CC50 (HepG2): > 400 µM

CC(C)OC(=O)[C@H](C)NP(=O)(OC[C@H]1O[C@@H](n2ccc(=S)[nH]c2=O)[C@@H](O)C1O)Oc1ccccc1 (stereo partly shown)
CC50 (HepG2): > 400 µM

C[C@H](NP(=O)(O)OC[C@H]1O[C@@H](n2ccc(=O)[nH]c2=S)[C@](C)(O)C1O)C(=O)O (stereo partly shown)
CC50 (CEM): > 400 µM | CC50 (Huh-7): > 400 µM | CC50 (HepG2): > 400 µM | CC50 (Huh-7 cells): > 100 µM

C[C@@]1(O)C(O)[C@@H](COP(=O)(O)O)O[C@H]1n1ccc(=O)[nH]c1=S (stereo partly shown)
CC50 (CEM): > 400 µM | CC50 (Huh-7): > 400 µM | CC50 (HepG2): > 400 µM | CC50 (Huh-7 cells): > 100 µM

CC(C)OC(=O)[C@H](C)NP(=O)(OC[C@@]1(N=[N+]=[N-])O[C@@H](n2ccc(=S)[nH]c2=O)[C@@H](O)C1O)Oc1ccccc1 (stereo partly shown)
CC50 (CEM): 229 µM | CC50 (Huh-7): > 400 µM | CC50 (HepG2): > 400 µM | CC50 (Huh-7 cells): > 100 µM

CC1(O)[C@@H](O)[C@@H](CO)O[C@H]1n1ccc(=O)[nH]c1=S (stereo partly shown)
CC50 (Cytotoxicity (CC50) CEM): > 200 µM | CC50 [1]: > 100 µM | CC50 [2]: > 100 µM | CC50 [3]: > 100 µM | CC50 [4]: > 400 µM | CC50 [5]: > 100 µM | EC50 (Dengue Type 2 [6]): > 100 µM

CC(C)OC(=O)[C@H](C)N[P@@](=O)(OC[C@H]1O[C@@H](n2ccc(=O)[nH]c2=S)C(C)(O)[C@H]1O)Oc1ccccc1 (stereo partly shown)
CC50 (Cytotoxicity (CC50) CEM): > 400 µM | CC50 [1]: > 100 µM | CC50 [3]: > 400 µM | CC50 [4]: > 400 µM | EC50 (Dengue Type 2 [7]): 56.2 µM | CC50 [5]: > 100 µM | EC50 (Dengue Type 2 [6]): 24.9 µM

C#C[C@]1(COP(=O)(N[C@@H](C)C(=O)OC(C)C)Oc2ccccc2)O[C@@H](n2ccc(=O)[nH]c2=S)C(O)[C@H]1O (stereo partly shown)
CC50 (Cytotoxicity (CC50) CEM): > 400 µM | CC50 [3]: > 400 µM | CC50 [4]: > 400 µM | CC50 [5]: > 100 µM | EC50 (Dengue Type 2 [6]): > 100 µM

CC(C)OC(=O)[C@H](C)NP(=O)(OC[C@H]1O[C@@H](n2ccc(=O)[nH]c2=S)C(C)[C@H]1O)Oc1ccccc1 (stereo partly shown)
CC50 (Cytotoxicity (CC50) CEM): 259 µM | CC50 [3]: > 400 µM | CC50 [4]: > 400 µM | CC50 [5]: > 100 µM | EC50 (Dengue Type 2 [6]): 6.07 µM
